How the values were obtained:
L. crispatus and E. coli = experiment: Therapeutic Effect Protocol: L. crispatus / E. coli co-culture, ratio after 36 hours; format: cell-based, Lactobacillus crispatus; E. coli; settings: for Therapeutic Efficacy Results (Lactobacillus/E. coli) 0.10%: nitrogen compound 0.10 wt/vol % with 1.0 wt/vol % α methyl-D glucoside (10:1); for Therapeutic Efficacy Results (Lactobacillus/E. coli) 0.10% / Therapeutic Efficacy Results (Lactobacillus/E. coli) 0.50%: 36 hours anaerobic co-culture, 37° C.; for Therapeutic Efficacy Results (Lactobacillus/E. coli) 0.50%: nitrogen compound 0.50 wt/vol % with 1.0 wt/vol % α methyl-D glucoside (2:1)
How it was run: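 L. crispatus and E. coli were mixed 1,000:1 (10^5-10^6 and 100-1,000 CFU per 5 mL tube) in LAPT-g medium at pH 6.5, containing 1% α-methyl-D-glucoside plus nitrogen compound at 0.1-1% w/v, in duplicate. After 36 h anaerobic incubation at 37 °C, each species was counted by selective plating (MRS anaerobic, TSA aerobic), and the L. crispatus:E. coli ratio and final pH were recorded.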

[1] = Initial pH screening of the composition; format: physicochemical; settings: for I pH (initial pH), 0.10%: nitrogen compound 0.10 wt/vol % with 1.0 wt/vol % α methyl-D glucoside in medium; for I pH (initial pH), 0.50%: nitrogen compound 0.50 wt/vol % with 1.0 wt/vol % α methyl-D glucoside in medium
How it was run: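 Compounds were added to LAPT-g medium (pH adjusted to 6.5) at a final 0.1-1.0%. Solubility was judged visually by precipitate or turbidity, and insoluble compositions got no pH measurement. Initial pH was scored Low (<5.5), High (>6.5) or Pass (5.5-6.5), and only soluble Pass compositions went on to efficacy testing.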

[2] = Solubility screening of the composition (visual precipitates or turbidity); format: physicochemical; settings: for Solubility of the composition, 0.50%: nitrogen compound 0.50 wt/vol % with 1.0 wt/vol % α methyl-D glucoside in medium; for Solubility of the composition, 1.00%: nitrogen compound 1.00 wt/vol % with 1.0 wt/vol % α methyl-D glucoside in medium
Description: Each composition in Table 1 went through initial screening measures of solubility and initial pH (“I pH”). […] When a specific concentration of a nitrogen containing compound was insoluble, the initial and final pH (“F pH”) of the combined composition was not measured and accordingly are each marked as “NM.” Additionally, initial pH of the composition was checked as a screening measure. The initial pH was marked as either Low (“L”), High (“H”), or Pass (“P”). A Low initial pH corresponds to an initial pH being less than 5.5, a High initial pH corresponds to an initial pH being greater than 6.5, and a Pass initial pH corresponds to the pH being at or between 5.5-6.5. […] As part of the Therapeutic Effect Protocol, a final pH was also measured after the compositions that were tested against the Lactobacillus and E. coli.
All of the ingredients in Table 2 were combined and the pH was adjusted to 6.5. […] To evaluate the effect of various nitrogen containing therapeutic agents on the growth of bacteria, the LAPT-g media, prepared as described above, was supplemented with various nitrogen containing compound therapeutic agents to a final test concentration between 0.1 and 1.0%. As initial screening measures, solubility and initial pH of each composition were checked. If a specific composition was insoluble (as detected by visual indication of precipitates or turbidity), then no further therapeutic efficacy testing was undertaken on that composition. Additionally, if the initial pH of the composition was below 5.5 (“Low”) or was above 6.5 (“High”), then no further therapeutic efficacy testing was undertaken on that composition.

Solubility of the composition, 0.50% [2]	Solubility of the composition, 1.00% [2]	Structure (SMILES)	Therapeutic Efficacy Results (Lactobacillus/E. coli) 0.10% (L. crispatus and E. coli)	I pH (initial pH), 0.10% [1]	Therapeutic Efficacy Results (Lactobacillus/E. coli) 0.50% (L. crispatus and E. coli)	Therapeutic effect when ratio α methyl-D glucoside : nitrogen compound is at least about 2:1, but not at 1:1 (L. crispatus and E. coli; with α methyl-D glucoside, ratio at least about 2:1, not 1:1)	I pH (initial pH), 0.50% [1]
Insol.	Insol.	CC[C@H](C)[C@H](N)C(=O)O [L-Isoleucine]	1.51	P (a Pass initial pH corresponds to the pH being at or between 5.5-6.5)	–	–	–
–	Insol.	CC(C)C[C@H](N)C(=O)O [L-Leucine]	2.9	P (a Pass initial pH corresponds to the pH being at or between 5.5-6.5)	0.24	provided a therapeutic effect	P (a Pass initial pH corresponds to the pH being at or between 5.5-6.5)
Insol.	Insol.	N[C@@H](Cc1ccccc1)C(=O)O [L-Phenylalanine]	0.09	P (a Pass initial pH corresponds to the pH being at or between 5.5-6.5)	–	–	–
Insol.	Insol.	O=c1cc[nH]c(=O)[nH]1 [Uracil]	0.43	P (a Pass initial pH corresponds to the pH being at or between 5.5-6.5)	–	–	–

Structure (SMILES)	Solubility of the composition, 0.50% [2]	Solubility of the composition, 1.00% [2]	Therapeutic Efficacy Results (Lactobacillus/E. coli) 0.10% (L. crispatus and E. coli)	I pH (initial pH), 0.10% [1]	Therapeutic Efficacy Results (Lactobacillus/E. coli) 0.50% (L. crispatus and E. coli)	Therapeutic effect when ratio α methyl-D glucoside : nitrogen compound is at least about 2:1, but not at 1:1 (L. crispatus and E. coli; with α methyl-D glucoside, ratio at least about 2:1, not 1:1)	I pH (initial pH), 0.50% [1]
N[C@@H](Cc1c[nH]c2ccccc12)C(=O)O [L-Tryptophan]	–	Insol.	0.66	P (a Pass initial pH corresponds to the pH being at or between 5.5-6.5)	0.06	–	P (a Pass initial pH corresponds to the pH being at or between 5.5-6.5)

Source: US12029748B2, “Synergistic composition for maintenance of healthy balance of microflora” (KIMBERLY-CLARK WORLDWIDE, INC., priority 2017, dated 2024)
